Test results: patent publication US8133871B2, “Dihydropseudoerythromycin derivatives” (The Kitasato Institute, priority 2005, dated 2012)
Read-outs that look alike come from different tables or passages of the source.

What was measured:
M. luteus ATCC9341 = assay: antibacterial activity, MIC (NCCLS method); format: cell-based; settings: Micrococcus luteus
Experimental: (§1) The antibacterial activity of the compound of the present invention and erythromycin were measured according to the antibacterial sensitivity measurement method of the US National Committee for Clinical Laboratory Standards (NCCLS). The values of minimum inhibitory concentration (MIC) (μg/ml) of each compound against bacteria are shown therein.

S. aureus FDA209P = assay: antibacterial activity, MIC (NCCLS method); format: cell-based; settings: Staphylococcus aureus
Experimental: as §1

S. epidermidis IFO12648 = assay: antibacterial activity, MIC (NCCLS method); format: cell-based; settings: Staphylococcus epidermidis
Experimental: as §1

E. coli NIHJ JC-2 = assay: antibacterial activity, MIC (NCCLS method); format: cell-based; settings: Escherichia coli, NIHJJC2
Experimental: as §1

S. aureus 8325 (pEP2104) = assay: antibacterial activity, MIC (NCCLS method); format: cell-based; settings: Staphylococcus aureus
Experimental: as §1

E. faecalis ATCC21212 = assay: antibacterial activity, MIC (NCCLS method); format: cell-based; settings: Enterococcus faecalis
Experimental: as §1

S. aureus Smith = assay: antibacterial activity, MIC (NCCLS method); format: cell-based; settings: Staphylococcus aureus
Experimental: as §1

S. marcescens IFO12648 = assay: antibacterial activity, MIC (NCCLS method); format: cell-based; settings: Serratia marcescens
Experimental: as §1

E. aerogen NCTC10006 = assay: antibacterial activity, MIC (NCCLS method); format: cell-based
Experimental: as §1

K. pneumoniae NCTN9632 = assay: antibacterial activity, MIC (NCCLS method); format: cell-based; settings: Klebsiella pneumoniae
Experimental: as §1

A. calcoaceticus IFO2552 = assay: antibacterial activity, MIC (NCCLS method); format: cell-based; settings: Acinetobacter calcoaceticus
Experimental: as §1

THP-1 cells = assay: THP-1 differentiation induction-promoting activity; format: cell-based; settings: Homo sapiens, THP-1; lowest concentration necessary to show 50% activity relative to the activity value of erythromycin A at 100 μM; PMA 1-2 μM, 72-96 hr
Experimental: As one index of the anti-inflammatory action of the compound of the present invention, the differentiation induction-promoting activity of THP-1 cell was measured. The measurement was performed as shown below.
THP-1 cells (ATCC No. TIB-202) were adjusted to a concentration of 2×10^5 cells/ml with a medium (RPMI 1640), PMA was added thereto to a final concentration of 1-2 μM, and the mixture was dispensed to each well of a 96 well plate by 100 μl. A solution (100 μl) containing a test substance was adjusted to an appropriate concentration with the medium and added to each well. The mixture was stirred by gently shaking the plate, and incubated under 37° C., 5% CO2 conditions for 72-96 hr. Each well was washed with PBS, a medium containing the viable cell measurement reagent SF (Nacalai Tesque) was added at 100 μl/well and the mixture was incubated under the conditions of 37° C., 5% CO2 for 3-5 hr. The absorbance was measured with a plate reader.
In the Table, the activity value is the lowest concentration necessary for the test compound to show a 50% activity value relative to the activity value of erythromycin A at 100 μM in this experiment.
THP-1 differentiation induction-promoting activity: The lowest concentration necessary for each compound to show 50% activity relative to the activity value of erythromycin A at 100 μM.

[1] = system: trinitrobenzene sulfonate (TNBS)-induced colitis; assay: TNBS-induced colitis in rats, damage of the large intestine scored by the method of Wallace et al.; format: in vivo; settings: rat TNBS colitis, oral, control 4.27 ± 0.38
Experimental: As an index of the treatment effect of the compound of the present invention on ulcerative colitis and Crohn's disease, an action on trinitrobenzene sulfonate (hereinafter to be indicated as TNBS)-induced colitis was examined using rats. Using 8-week-old male SD rats under pentobarbital anesthesia, TNBS solution was injected into the rectum of animals after fasting for 24 hr or longer and abstaining from water for 5 hr or longer. After injection, a silicone stopper was inserted into the anus to perform a treatment for 3.5-4 hr, whereby a colitis model was prepared. Two days after TNBS administration, model animals were selected based on the fecal occult blood score (fecal occult blood slide 5 shionogi II, Shionogi & Co. Ltd.), body weight and body weight changes, feeding condition, observation score of around anus and bleeding. A test drug was orally administered to the model animals two times a day for 6 days. On the next day of the final drug administration, the large intestine (about 15 cm from the anus) was removed after decapitation and exsanguination, and the level of damage was scored by the method of Wallace et al. (Wallace, J. L. et al, Inhibition of leukotriene synthesis markedly accelerates healing in a rat model of inflammatory bowel disease. Gastroenterology 96, 2936 (1989)), based on which the efficacy was evaluated.

[2] = M. luteus ATCC9341 2002.1.31, read-out: MIC
[3] = dose 10 × 2 (mg/kg)/day for 6 days
[4] = dose 30 × 2 (mg/kg)/day for 6 days
[5] = S. aureus FDA209P 2002.1.31, read-out: MIC
[6] = S. epidermidis IFO12648 2002.1.31, read-out: MIC
[7] = E. coli NIHJ JC-2 2002.1.31, read-out: MIC
[8] = E. faecalis ATCC21212 2002.1.31, read-out: MIC
[9] = S. aureus Smith 2002.1.31, read-out: MIC
[10] = K. pneumoniae NCTN9632 2002.1.31, read-out: MIC
[11] = A. calcoaceticus IFO2552 2002.2.1, read-out: MIC

CC[C@@H](O)[C@@](C)(O)[C@@H]1OC(=O)[C@H](C)[C@@H](O[C@H]2CC(C)(OC)[C@@H](O)C(C)O2)[C@H](C)[C@@H](O[C@@H]2OC(C)CC(N(C)C)C2O)[C@@]2(C)CC(C)C(O2)[C@@H]1C (stereo partly shown) [EM900, 9-dihydro-pseudoerythromycin A 6,9-epoxide]
30 µM: minimal effective concentration (THP-1 cells)
> 128 µg/mL: MIC (S. aureus FDA209P; FDA209P) | MIC (S. epidermidis IFO12648; IFO12648) | MIC (E. coli NIHJ JC-2) | MIC (S. aureus 8325 (pEP2104)) | MIC (E. faecalis ATCC21212; ATCC21212) | MIC (S. aureus Smith) | MIC (S. marcescens IFO12648; IFO12648) | MIC (E. aerogen NCTC10006) | MIC (K. pneumoniae NCTN9632; NCTN9632) | MIC (A. calcoaceticus IFO2552; IFO2552)
128 µg/mL: MIC (M. luteus ATCC9341; [2])

CC[C@@H](O)[C@@](C)(O)[C@@H]1OC(=O)[C@H](C)[C@@H](O[C@H]2CC(C)(OC)[C@@H](O)C(C)O2)[C@H](C)[C@@H](O[C@@H]2OC(C)CC(NC)C2O)[C@@]2(C)CC(C)C(O2)[C@@H]1C (stereo partly shown) [EM901, de(3′-N-methyl)-9-dihydro-pseudoerythromycin A 6,9-epoxide]
> 128 µg/mL: MIC (M. luteus ATCC9341; ATCC9341) | MIC (S. aureus FDA209P; FDA209P) | MIC (S. epidermidis IFO12648; IFO12648) | MIC (E. coli NIHJ JC-2) | MIC (S. aureus 8325 (pEP2104)) | MIC (E. faecalis ATCC21212; ATCC21212) | MIC (S. aureus Smith) | MIC (S. marcescens IFO12648; IFO12648) | MIC (E. aerogen NCTC10006) | MIC (K. pneumoniae NCTN9632; NCTN9632) | MIC (A. calcoaceticus IFO2552; IFO2552)
30 µM: minimal effective concentration (THP-1 cells)

CC[C@@H](O)[C@@](C)(O)[C@@H]1OC(=O)[C@H](C)[C@@H](O[C@H]2CC(C)(OC)[C@@H](O)C(C)O2)[C@H](C)[C@H](O[C@@H]2OC(C)CC(N(C)Cc3ccc(Cl)cc3)C2O)[C@@]2(C)CC(C)C(O2)[C@@H]1C (stereo partly shown) [EM905, de(3′-N-methyl)-3′-N-(p-chlorobenzyl)-9-dihydro-pseudoerythromycin A 6,9-epoxide]
3.29 ± 0.22: Inflammation score in ulcer [1, 3]
2.67 ± 0.40: Inflammation score in ulcer [1, 4]
3 µM: minimal effective concentration (THP-1 cells)
> 128 µg/mL: MIC (M. luteus ATCC9341; ATCC9341) | MIC (S. aureus FDA209P; FDA209P) | MIC (S. epidermidis IFO12648; IFO12648) | MIC (E. coli NIHJ JC-2) | MIC (S. aureus 8325 (pEP2104)) | MIC (E. faecalis ATCC21212; ATCC21212) | MIC (S. aureus Smith) | MIC (S. marcescens IFO12648; IFO12648) | MIC (E. aerogen NCTC10006) | MIC (K. pneumoniae NCTN9632; NCTN9632) | MIC (A. calcoaceticus IFO2552; IFO2552)

CC[C@@H](O)[C@@](C)(O)[C@@H]1OC(=O)[C@H](C)[C@@H](O[C@H]2CC(C)(OC)[C@@H](O)C(C)O2)[C@H](C)[C@@H](O[C@@H]2OC(C)CC(N3CCOCC3)C2O)[C@]2(C)CC(C)C(O2)[C@@H]1C (stereo partly shown) [EM914, de(3′-dimethylamino)-3′-morpholino-9-dihydro-pseudoerythromycin A 6,9-epoxide]
2.69 ± 0.33: Inflammation score in ulcer [1, 4]
2.93 ± 0.41: Inflammation score in ulcer [1, 3]
100 µM: minimal effective concentration (THP-1 cells)
> 128 µg/mL: MIC (S. aureus FDA209P; FDA209P) | MIC (E. coli NIHJ JC-2) | MIC (S. aureus 8325 (pEP2104)) | MIC (E. faecalis ATCC21212; ATCC21212) | MIC (S. aureus Smith) | MIC (S. marcescens IFO12648; IFO12648) | MIC (E. aerogen NCTC10006) | MIC (K. pneumoniae NCTN9632; NCTN9632) | MIC (A. calcoaceticus IFO2552; IFO2552)

CC[C@H]1OC(=O)O[C@@]1(C)[C@@H]1OC(=O)[C@H](C)C(=O)[C@H](C)[C@@H](O[C@@H]2OC(C)CC(N(C)Cc3ccc(Cl)cc3)C2O)[C@]2(C)CC(C)C(O2)[C@@H]1C (stereo partly shown) [EM939, de(3′-N-methyl)-3′-N-(p-chlorobenzyl)-de(3-O-cladinosyl)-9-dihydro-3-keto-pseudoerythromycin A 6,9-epoxide 12,13-carbonate]
> 64 µg/mL: MIC (M. luteus ATCC9341; [2]) | MIC (S. aureus FDA209P; [5]) | MIC (S. epidermidis IFO12648; [6]) | MIC (E. coli NIHJ JC-2; [7]) | MIC (S. aureus 8325 (pEP2104)) | MIC (E. faecalis ATCC21212; [8]) | MIC (S. aureus Smith; [9]) | MIC (S. marcescens IFO12648; S. marcescens IFO12648 2002.2.1, read-out: MIC) | MIC (E. aerogen NCTC10006; E. aerogen NCTC10006 2002.2.1, read-out: MIC) | MIC (K. pneumoniae NCTN9632; [10]) | MIC (A. calcoaceticus IFO2552; [11])
3 µM: minimal effective concentration (THP-1 cells)

CC[C@H]1OC(=O)[C@H](C)[C@@H](O[C@H]2C[C@@](C)(OC)[C@@H](O)[C@H](C)O2)[C@H](C)[C@@H](O[C@@H]2O[C@H](C)C[C@H](N(C)C)[C@H]2O)[C@](C)(O)C[C@@H](C)C(=O)[C@H](C)[C@@H](O)[C@]1(C)O [erythromycin]
1 µg/mL: MIC (E. faecalis ATCC21212; [8])
128 µg/mL: MIC (S. marcescens IFO12648; IFO12648) | MIC (E. aerogen NCTC10006)
64 µg/mL: MIC (E. coli NIHJ JC-2; [7]) | MIC (S. aureus 8325 (pEP2104))
4 µg/mL: MIC (A. calcoaceticus IFO2552; [11])
≤ 0.5 µg/mL: MIC (M. luteus ATCC9341; [2]) | MIC (S. aureus FDA209P; [5]) | MIC (S. epidermidis IFO12648; [6]) | MIC (S. aureus Smith; [9])
32 µg/mL: MIC (K. pneumoniae NCTN9632; [10])
